Measured values as given in patent publication US9789096B2, “Methods and compositions for selective and targeted cancer therapy” (Board of Regents of the University of Texas System, priority 2013, dated 2017).
Like-named read-outs stand apart in the source and are kept apart here.

How the values were obtained:
[1] = test system: HCC95; test: Cell viability dose-response, HCC95; assay type: cell-based; conditions: Homo sapiens, Tables 3 and 4, read-out: IC50 (uM) vs indicated non-small cell lung cancer cell line HCC95
Method: (§1) FIG. 6A. […] Cell viability is plotted vs. compound concentration. Compound was added to cells plated at 15% confluence in 96-well plates in RPMI-1640 media supplemented with 5% Fetal Bovine Serum and 2 mM L-Glutamine. After 4 days of incubation, ATP levels were measured using Cell Titer Glo (Promega). Data are presented as the average of 2 replicates ±SEM.
(§2) Selectivity may be measured by the half maximal inhibitory concentration (IC50), which, as used herein, is a measure of the effectiveness of a compound in killing cells. This quantitative measure indicates how much of a particular compound is needed to kill a particular cell population by half (e.g., as indicated by the amount of ATP). […] The IC50 can be determined by constructing a dose-response curve. The lower the IC50, the higher the potency, and the greater the difference between IC50 values for different cell lines (e.g., sensitive lines vs. insensitive lines, and sensitive lines vs. normal lines) the greater the selectivity. […]
(§3) With this information, we synthesized and tested a series of small molecules derived in conception from the oxalamide and chromone scaffold including N-acyl ureas, as shown in Tables 6-8. Each compound was tested in a 12-point dose-response study starting at 50 micromolar and decreasing in 3-fold increments to sub-nanomolar concentrations, in duplicate. Additionally, one or more additional cell line was tested in the same way.

[2] = test system: H2122; test: Cell viability dose-response, H2122; assay type: cell-based, human; conditions: read-out: IC50 (uM) vs indicated non-small cell lung cancer cell line H2122
Procedure, shortened: (§4)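 Viability read as total ATP (Cell Titer Glo) following 4 days' compound exposure, with IC50 derived from dose-response curves. Duplicate 12-point series, top concentration 50 micromolar with 3-fold steps, on cells seeded at 15% confluence in RPMI-1640, 5% FBS, 2 mM L-glutamine.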

[3] = test system: H2073; test: Cell viability dose-response, H2073; assay type: cell-based, human; conditions: read-out: IC50 (uM) vs indicated non-small cell lung cancer cell line H2073
Procedure, shortened: (§5)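 Proliferation/viability determined by ATP content following 4-day incubation with test compound in RPMI-1640 + 5% serum + 2 mM glutamine. IC50 taken as the concentration halving ATP signal on the dose-response curve.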

[4] = test system: H1993; test: Cell viability dose-response, H1993; assay type: cell-based; conditions: Homo sapiens, NCI-H1993; Tables 3 and 4; read-out: IC50 (uM) vs indicated non-small cell lung cancer cell line H1993
Method: as §1, §2, §3

[5] = test system: HBEC30KT; test: Cell viability (ATP, Cell Titer Glo, 4 days), HBEC30KT; assay type: cell-based, human; conditions: Homo sapiens, Tables 3 and 4; read-out: HBEC30KT IC50
Method: as §1, §2

[6] = test system: H460; test: Cell viability dose-response, H460; assay type: cell-based; conditions: Homo sapiens, NCI-H460; Tables 3 and 4; read-out: IC50 (uM) vs indicated non-small cell lung cancer cell line H460
Method: as §1, §2, §3

[7] = test system: HCC44; test: Cell viability dose-response, HCC44; assay type: cell-based, human; conditions: read-out: IC50 (uM) vs indicated non-small cell lung cancer cell line HCC44
Procedure, shortened: as §5

[8] = test system: H1155; test: Cell viability dose-response, H1155; assay type: cell-based; conditions: Homo sapiens, NCI-H1155; Tables 3 and 4; read-out: IC50 (uM) vs indicated non-small cell lung cancer cell line H1155
Method: as §1, §2, §3

[9] = test system: H2009; test: Cell viability dose-response, H2009; assay type: cell-based, human; conditions: Homo sapiens, NCI-H2009; Tables 3 and 4; read-out: IC50 (uM) vs indicated non-small cell lung cancer cell line H2009
Procedure, shortened: as §5

[10] = test system: HCC4017; test: Cell viability dose-response, HCC4017; assay type: cell-based, human; conditions: read-out: IC50 (uM) vs indicated non-small cell lung cancer cell line HCC4017
Method: as §1, §2, §3

[11] = test system: HCC366; test: Cell viability dose-response, HCC366; assay type: cell-based; conditions: Homo sapiens, Tables 3 and 4, read-out: IC50 (uM) vs indicated non-small cell lung cancer cell line HCC366
Method: as §1, §2, §3

[12] = test system: H1819; test: Cell viability dose-response, H1819; assay type: cell-based, human; conditions: Homo sapiens, NCI-H1819, Tables 3 and 4; read-out: IC50 (uM) vs indicated non-small cell lung cancer cell line H1819
Procedure, shortened: as §4

[13] = test system: H1395; test: Cell viability dose-response, H1395; assay type: cell-based; conditions: Homo sapiens, NCI-H1395; Tables 3 and 4; read-out: IC50 (uM) vs indicated non-small cell lung cancer cell line H1395
Method: as §1, §2, §3

[14] = Homo sapiens, NCI-H2122, Tables 3 and 4
[15] = Homo sapiens, NCI-H2073, Tables 3 and 4
[16] = Homo sapiens, HCC44, Tables 3 and 4
[17] = Homo sapiens, HCC4017, Tables 3 and 4

| Compound | IC50 [1] | IC50 [2, 14] | IC50 [3, 15] | IC50 [4] | IC50 [5] | IC50 [6] | IC50 [7, 16] | IC50 [8] | IC50 [9] | IC50 [10, 17] | IC50 [11] | IC50 [12] | IC50 ([10]; Tables 3 and 4) | IC50 ([2]; Tables 3 and 4) | IC50 ([7]; Tables 3 and 4) | IC50 [13] | IC50 ([3]; Tables 3 and 4) |
| --- | --- | --- | --- | --- | --- | --- | --- | --- | --- | --- | --- | --- | --- | --- | --- | --- | --- |
| CCN(CC)c1ccc(C(=O)Nc2nc3ccc4ccccc4c3s2)cc1 [SW018825] | 2.23 µM | 0.129 µM | 0.424 µM | 47.5 µM |  |  |  |  |  |  |  |  |  |  |  |  |  |
| COc1ccc2nc(NC(=O)c3cccnc3)sc2c1 [SW202774-1] | 0.336 µM | 1.08 µM | 1.34 µM | 25.5 µM | 46.7 µM | 1.31 µM | 1.01 µM | 35.2 µM | 36.6 µM |  |  |  |  |  |  |  |  |
| O=C(Nc1cccc(NC(=O)c2sc3ccccc3c2Cl)c1)c1ccco1 [SW023008-2] |  | 1.27 µM |  |  | 82.5 µM |  | 105 µM |  |  | 809 µM |  |  |  |  |  |  |  |
| O=C(Nc1ccccc1F)c1sc2ccccc2c1Cl [SW118094] |  | 1.05 µM |  |  | 34.1 µM | 0.606 µM | 0.09 µM |  |  | 0.322 µM | 124 µM | 1.21 µM |  |  |  |  |  |
| COc1ccc2nc(NC(=O)c3ccc([N+](=O)[O-])cc3)sc2c1 [SW001282-2] | 19.6 µM | 0.159 µM | 0.752 µM |  | 49.2 µM | 0.512 µM | 30.1 µM |  | 2.81 µM |  |  |  |  |  |  |  |  |
| O=C(Nc1nc2ccc(O)cc2s1)c1c(F)ccc(O)c1F [SW202860-1] | 44.9 µM | 4.05 µM | 18.1 µM | 35.6 µM |  | 47.8 µM | 15.1 µM | 49.2 µM | 41.7 µM | 47.5 µM | 42.6 µM |  |  |  |  |  |  |
| O=C(Nc1cccc(NC(=O)c2sc3ccccc3c2Cl)c1)c1cccc(Cl)c1 [SW023441-2] |  |  |  |  | 31.8 µM |  |  |  |  |  |  |  | 46 µM | 0.473 µM | 27.7 µM |  |  |
| COc1ccc2sc(NC(=O)c3ccc([N+](=O)[O-])cc3)nc2c1 [SW004969] | 0.2 µM | 0.21 µM | 0.658 µM |  |  | 0.521 µM |  |  | 5.5 µM |  |  |  |  |  |  |  |  |
| O=C(Nc1nc2c(s1)CCCC2)c1ccc(Cc2ccccc2)cc1 [SW011940] | 5.86 µM | 0.037 µM | 2.63 µM | 12.7 µM |  | 2.13 µM | 50.6 µM | 21.7 µM | 7 µM | 4.26 µM |  | 46.3 µM |  |  |  | 35.6 µM |  |
| CCOC(=O)c1c(NC(=O)c2ccc([N+](=O)[O-])cc2)sc2c1CCCC2 [SW108364-2] |  | 5.92 µM | 24.3 µM | 23.4 µM | 35.2 µM |  | 35.2 µM |  | 15.8 µM | 35.2 µM |  |  |  |  |  |  |  |
| O=C(Nc1ccccc1N1CCCC1)c1sc2ccccc2c1Cl [SW174698] |  | 5.12 µM |  |  | 4950 µM |  | 3.06 µM |  |  | 403 µM |  |  |  |  |  |  |  |
| CCOc1cc(OCC)cc(C(=O)Nc2nc3ccc(OC)cc3s2)c1 [SW202776-1] | 8.15 µM |  | 4.56 µM |  |  |  |  | 46.2 µM | 15.3 µM |  |  |  |  |  |  |  |  |
| NC(=O)c1c(NC(=O)c2ccc(Br)o2)sc2c1CCCC2 [SW172864] | 43.6 µM |  | 0.129 µM | 0.871 µM | 12.6 µM | 35.1 µM | 2.52 µM |  | 3.2 µM | 1.71 µM |  |  |  |  |  | 44.5 µM |  |
| O=C(Nc1cccc(F)c1)c1sc2ccccc2c1Cl [SW202550] |  | 1.91 µM |  |  | 105 µM |  | 0.566 µM |  |  | 17.3 µM |  |  |  |  |  |  |  |
| CCOC(=O)c1c(NC(=O)c2ccc(F)cc2)sc2c1CCCC2 [SW202859-1] | 31.4 µM |  |  | 47.1 µM | 38.2 µM |  |  |  |  |  |  |  |  |  |  |  |  |
| COC(=O)c1ccc(C(=O)Nc2nc3ccc(N)cc3s2)cc1 [SW001296] |  | 35.1 µM |  |  |  | 4.46 µM | 0.34 µM |  |  |  |  |  |  |  |  |  | 3.72 µM |
| O=C(Nc1ccc(F)cc1)c1sc2ccccc2c1Cl [SW006505] |  | 1.7 µM |  |  | 63.9 µM |  | 0.657 µM |  |  | 262 µM |  |  |  |  |  |  |  |
| O=C(Nc1nc2ccc(F)cc2s1)c1sc2ccccc2c1Cl [SW147703] | 32.4 µM | 3.3 µM | 1.12 µM | 13.5 µM | 33.3 µM |  | 37.5 µM | 13.3 µM | 34.5 µM |  |  |  |  |  |  |  |  |
| COc1ccccc1NC(=O)c1sc2ccccc2c1Cl [SW004989] |  | 0.801 µM | 0.052 µM | > 5 µM |  |  | 56.8 µM |  | > 8 µM | 249 µM |  | 43.7 µM |  | 1.02 µM | 38.7 µM |  |  |
| COc1ccc2nc(NC(=O)c3c(F)ccc(OC)c3F)sc2c1 [SW202775-1] | 3.19 µM | 6.53 µM | 5.96 µM | 8.87 µM |  | 48 µM | 16.9 µM | 35.5 µM |  |  |  |  |  |  |  |  |  |
| NC(=O)c1ccccc1NC(=O)c1sc2ccccc2c1Cl [SW119800] |  | 2.66 µM |  |  | 85.4 µM |  | 206 µM |  |  | 467 µM |  |  |  |  |  |  |  |
| NC(=O)c1c(NC(=O)COc2ccccc2)sc2c1CCCC2 [SW119324] | 28.5 µM |  |  | > 8 µM | 10.4 µM |  | 34.4 µM | 44.5 µM | 0.881 µM |  |  |  |  |  |  |  |  |
